{"source": "patent US20150209315A1", "about": "(Cumberland Pharmaceuticals, priority 2009, published 2015)", "assay_type_in_all_cases": "in vivo, human", "key": {"[1]": {"system": "post-operative adult patients", "test": "Example 1: morphine usage in the 24 hours following surgery", "method": "The reference product, dose and mode of administration was normal saline, 100 ml, intravenous. Saline was chosen as the control group (placebo) for this study, to ensure blinding and allow for analysis of treatment effect. The duration of treatment was up to 5 days post surgery. […] Groups were stratified according to two age groups: <45 and >45 to 70 years of age and two weight groups: <75 kg and >75 kg of weight. The study participants were randomized based on criteria for an efficacy evaluable population (EEP) versus an intent to treat population (ITT). The ITT included all patients who were randomized and received at least a partial dose of ibuprofen. […] Eligible patients were randomized to one of the three treatment groups. All patients were able (but were not required) to receive morphine until approximately 45 minutes before the end of the surgical procedure. After that time, only fentanyl was allowed until the end of the operation. The first dose of ibuprofen was administered at approximately the initiation of skin closure. […] Other than ibuprofen or placebo, only morphine was administered for pain. […] Additional morphine could be administered at the discretion of the treating physician if adequate pain control had still not been achieved. Patients given non-morphine analgesics were classified as treatment failures. Treatment failures were not replaced. […] Secondary efficacy parameters were also evaluated and compared among the treatment groups using appropriate statistical methods described in the statistical analysis section of the protocol. Safety information was compared between the treatment groups using Chi-Square or Cochran-Mantel-Haenszel test. Demographic, background and baseline information among the treatment groups was also described. […] Efficacy analyses were performed on the Intent to Treat (ITT) population and the Efficacy Evaluable Population (EEP). In addition a subset of EEP patients who underwent abdominal hysterectomies (AH) were analyzed separately to evaluate efficacy in a more homogenous population."}, "[2]": {"system": "post-operative adult patients", "test": "Example 1: time to GI motility, ambulation, liquid/solid intake, length of hospital stay", "settings": "for Time to GI motility: value + SD"}, "[3]": {"system": "post-operative adult patients", "test": "Example 2: patient self-assessment of pain, VAS with movement", "settings": "800 mg"}, "[4]": {"system": "post-operative adult patients", "test": "Example 2: patient self-assessment of pain, VAS at rest", "settings": "800 mg, EEP"}, "[5]": {"settings": "400 mg, AH (abdominal hysterectomies)"}, "[6]": {"settings": "800 mg, AH (abdominal hysterectomies)"}}, "note": "“And” between values parts separate entries of the source, which are not always exact repeats. Equal entries are not always repeated."}
{"smiles": "CC(C)Cc1ccc(C(C)C(=O)O)cc1", "note": "(centres unmarked) [Ibuprofen, 2-(4-isobutylphenyl) propionic acid]", "values": [{"measurement": "Morphine Usage in the 24 Hours Following Surgery, % Reduction vs. PBO", "setting": "[1]; [5]", "result": "15.9% and 16%"}, {"measurement": "Morphine Usage in the 24 Hours Following Surgery, Median", "setting": "[1]; [5]", "result": 45.00}, {"measurement": "Morphine Usage in the 24 Hours Following Surgery, % Reduction vs. PBO", "setting": "[1]; 400 mg, AH (abdominal hysterectomies), listed as IVIb", "result": 15.89, "unit": "%"}, {"measurement": "Morphine Usage in the 24 Hours Following Surgery, % Reduction vs. PBO", "setting": "[1]; 400 mg, EEP", "result": 4.4, "unit": "%"}, {"measurement": "Morphine Usage in the 24 Hours Following Surgery, Median", "setting": "[1]; 400 mg, EEP", "result": 43.00}, {"measurement": "Morphine Usage in the 24 Hours Following Surgery, % Reduction vs. PBO", "setting": "[1]; 400 mg, EEP, listed as IVIb", "result": 4.44, "unit": "%"}, {"measurement": "Morphine Usage in the 24 Hours Following Surgery, % Reduction vs. PBO", "setting": "[1]; 400 mg, ITT", "result": 2.76, "unit": "%"}, {"measurement": "Morphine Usage in the 24 Hours Following Surgery, Median", "setting": "[1]; 400 mg, ITT", "result": 44.00}, {"measurement": "Morphine Usage in the 24 Hours Following Surgery, % Reduction vs. PBO", "setting": "[1]; [6]", "result": "41.1% and 41%"}, {"measurement": "Morphine Usage in the 24 Hours Following Surgery, Median", "setting": "[1]; [6]", "result": 31.50}, {"measurement": "Morphine Usage in the 24 Hours Following Surgery, % Reduction vs. PBO", "setting": "[1]; 800 mg, AH (abdominal hysterectomies), listed as IVIb", "result": 41.12, "unit": "%"}, {"measurement": "Morphine Usage in the 24 Hours Following Surgery, Median", "setting": "[1]; 800 mg, EEP", "result": 33.50}, {"measurement": "Morphine Usage in the 24 Hours Following Surgery, % Reduction vs. PBO", "setting": "[1]; 800 mg, EEP, listed as IV ibuprofen", "result": 26, "unit": "%"}, {"measurement": "Morphine Usage in the 24 Hours Following Surgery, % Reduction vs. PBO", "setting": "[1]; 800 mg, EEP, listed as IVIb", "result": 25.56, "unit": "%"}, {"measurement": "Morphine Usage in the 24 Hours Following Surgery, % Reduction vs. PBO", "setting": "[1]; 800 mg, ITT", "result": 21.6, "unit": "%"}, {"measurement": "Morphine Usage in the 24 Hours Following Surgery, Median", "setting": "[1]; 800 mg, ITT", "result": 35.50}, {"measurement": "Morphine Usage in the 24 Hours Following Surgery, % Reduction vs. PBO", "setting": "[1]; 800 mg, ITT, listed as IVIb", "result": 21.55, "unit": "%"}, {"measurement": "Time to GI motility", "setting": "[2]; 400 mg, EEP", "result": "20.2+1.30 hours"}, {"measurement": "Time to GI motility", "setting": "[2]; 400 mg, ITT", "result": "20.1+1.28 hours"}, {"measurement": "Time to GI motility", "setting": "[2]; 800 mg, EEP", "result": "21.2+1.63 hours"}, {"measurement": "Time to GI motility", "setting": "[2]; 800 mg, ITT", "result": "21.6+1.50 hours"}, {"measurement": "time to liquid intake vs placebo", "setting": "[2]; ibuprofen treated group, ITT", "result": "not found to be statistically significant"}, {"measurement": "time to solid intake vs placebo", "setting": "[2]; ibuprofen treated group, ITT", "result": "not found to be statistically significant"}, {"measurement": "Time to ambulation vs placebo", "setting": "[2]; ibuprofen treated groups, ITT", "result": "found not to be statistically significant faster"}, {"measurement": "Length of hospital stay vs placebo", "setting": "[2]; treated groups, ITT", "result": "not found to be statistically significant"}, {"measurement": "VAS Score measured with Movement (median)", "setting": "[3]; EEP, 1-Hour", "result": 9.0}, {"measurement": "VAS Score measured with Movement, % Reduction vs Placebo", "setting": "[3]; EEP, 1-Hour", "result": "−12.5", "unit": "%"}, {"measurement": "VAS Score measured with Movement (median)", "setting": "[3]; EEP, 3-Hour", "result": 7.0}, {"measurement": "VAS Score measured with Movement, % Reduction vs Placebo", "setting": "[3]; EEP, 3-Hour", "result": 0.0, "unit": "%"}, {"measurement": "VAS Score measured with Movement (median)", "setting": "[3]; EEP, 6-Hour", "result": 6.0}, {"measurement": "VAS Score measured with Movement, % Reduction vs Placebo", "setting": "[3]; EEP, 6-Hour", "result": 0.0, "unit": "%"}, {"measurement": "VAS Score measured with Movement (median)", "setting": "[3]; EEP, 9-Hour", "result": 5.0}, {"measurement": "VAS Score measured with Movement, % Reduction vs Placebo", "setting": "[3]; EEP, 9-Hour", "result": 0.0, "unit": "%"}, {"measurement": "VAS Score measured with Movement (median)", "setting": "[3]; EEP, 12-Hour", "result": 4.0}, {"measurement": "VAS Score measured with Movement, % Reduction vs Placebo", "setting": "[3]; EEP, 12-Hour", "result": 20.0, "unit": "%"}, {"measurement": "VAS Score measured with Movement (median)", "setting": "[3]; EEP, 15-Hour", "result": 3.0}, {"measurement": "VAS Score measured with Movement (median)", "setting": "[3]; EEP, 18-Hour", "result": 3.0}, {"measurement": "VAS Score measured with Movement, % Reduction vs Placebo", "setting": "[3]; EEP, 18-Hour", "result": 25.0, "unit": "%"}, {"measurement": "VAS Score measured with Movement (median)", "setting": "[3]; EEP, 21-Hour", "result": 3.0}, {"measurement": "VAS Score measured with Movement, % Reduction vs Placebo", "setting": "[3]; EEP, 21-Hour", "result": 25.0, "unit": "%"}, {"measurement": "VAS Score measured with Movement (median)", "setting": "[3]; EEP, 24-Hour", "result": 3.0}, {"measurement": "VAS Score measured with Movement, % Reduction vs Placebo", "setting": "[3]; EEP, 24-Hour", "result": 40.0, "unit": "%"}, {"measurement": "VAS Score measured with Movement (median)", "setting": "[3]; ITT, 1-Hour", "result": 9.0}, {"measurement": "VAS Score measured with Movement, % Reduction vs Placebo", "setting": "[3]; ITT, 1-Hour", "result": "−12.5", "unit": "%"}, {"measurement": "VAS Score measured with Movement (median)", "setting": "[3]; ITT, 3-Hour", "result": 7.0}, {"measurement": "VAS Score measured with Movement, % Reduction vs Placebo", "setting": "[3]; ITT, 3-Hour", "result": 0.0, "unit": "%"}, {"measurement": "VAS Score measured with Movement (median)", "setting": "[3]; ITT, 6-Hour", "result": 6.0}, {"measurement": "VAS Score measured with Movement, % Reduction vs Placebo", "setting": "[3]; ITT, 6-Hour", "result": 0.0, "unit": "%"}, {"measurement": "VAS Score measured with Movement (median)", "setting": "[3]; ITT, 9-Hour", "result": 5.0}, {"measurement": "VAS Score measured with Movement, % Reduction vs Placebo", "setting": "[3]; ITT, 9-Hour", "result": 3.8, "unit": "%"}, {"measurement": "VAS Score measured with Movement (median)", "setting": "[3]; ITT, 12-Hour", "result": 4.3}, {"measurement": "VAS Score measured with Movement, % Reduction vs Placebo", "setting": "[3]; ITT, 12-Hour", "result": 10.4, "unit": "%"}, {"measurement": "VAS Score measured with Movement (median)", "setting": "[3]; ITT, 15-Hour", "result": 3.4}, {"measurement": "VAS Score measured with Movement, % Reduction vs Placebo", "setting": "[3]; ITT, 15-Hour", "result": 22.7, "unit": "%"}, {"measurement": "VAS Score measured with Movement (median)", "setting": "[3]; ITT, 18-Hour", "result": 3.0}, {"measurement": "VAS Score measured with Movement (median)", "setting": "[3]; ITT, 21-Hour", "result": 3.0}, {"measurement": "VAS Score measured with Movement, % Reduction vs Placebo", "setting": "[3]; ITT, 21-Hour", "result": 34.8, "unit": "%"}, {"measurement": "VAS Score measured with Movement (median)", "setting": "[3]; ITT, 24-Hour", "result": 3.6}, {"measurement": "VAS Score measured with Movement, % Reduction vs Placebo", "setting": "[3]; ITT, 24-Hour", "result": 20.0, "unit": "%"}, {"measurement": "VAS Score measured at Rest (median)", "setting": "[4]; 1-Hour", "result": 8.0}, {"measurement": "VAS Score measured at Rest, % Reduction vs Placebo", "setting": "[4]; 1-Hour", "result": 0.0, "unit": "%"}, {"measurement": "VAS Score measured at Rest (median)", "setting": "[4]; 3-Hour", "result": 5.0}]}
